Assay results taken from patent publication US8945540B2, “Compositions for enhancing the antibacterial activity of myeloperoxidase and methods of use thereof” (Exoxemis, Inc., priority 2008, dated 2015).

How the values were obtained:
Citrobacter freundii = test: MIC, modified CLSI broth microdilution; format: cell-based; settings: 20 clinical isolates
Description: (§1) All clinical isolates were obtained from the culture collection of Eurofins Medinet Anti-Infective Services (Herndon, Va.), and represent diverse geographical regions. […] Escherichia coli ATCC 25922, Staphylococcus aureus ATCC 25923, S. aureus ATCC 29213, Pseudomonas aeruginosa ATCC 27853, and Enterococcus faecalis ATCC 29212 were used as quality control strains for the Enhanced MPO Solution and comparator agents to validate the modified Clinical and Laboratory Standards Institute (CLSI, formally NCCLS) broth microdilution method.
(§2) Modifications were made to the standard broth microdilution method to accommodate the rapid in vitro activity of the Enhanced MPO Solution as described below. Each antimicrobial agent and Concentrate solution was diluted in double strength cation-adjusted Mueller-Hinton Broth (CAMHB) and dispensed in mircrodilution trays. All β-hemolytic streptococci were tested in double strength CAMHB supplemented with 5% lysed horse blood. Isolates were prepared by suspending several colonies (four to six) from an overnight culture on Trypticase Soy Agar (TSA) with 5% sheep blood into sterile saline and the density adjusted to a 0.5 McFarland standard (˜10^8 CFU/ml). Standardized bacterial suspensions were further diluted in double strength Diluent solution so that approximately 5×10^5 CFU/ml was mixed with serial drug dilutions. […]

Enterobacter cloacae = test: MIC, modified CLSI broth microdilution; format: cell-based; settings: 21 clinical isolates
Description: as §1, §2

E. coli = test: MIC, modified CLSI broth microdilution; format: cell-based, Escherichia coli
Description: All clinical isolates were obtained from the culture collection of Eurofins Medinet Anti-Infective Services (Herndon, Va.), and represent diverse geographical regions. They were originally derived from clinical specimens and identified using standard microbiological methods (see Table 33 below for details). Escherichia coli ATCC 25922, Staphylococcus aureus ATCC 25923, S. aureus ATCC 29213, Pseudomonas aeruginosa ATCC 27853, and Enterococcus faecalis ATCC 29212 were used as quality control strains for the Enhanced MPO Solution and comparator agents to validate the modified Clinical and Laboratory Standards Institute (CLSI, formally NCCLS) broth microdilution method.
Modifications were made to the standard broth microdilution method to accommodate the rapid in vitro activity of the Enhanced MPO Solution as described below. Each antimicrobial agent and Concentrate solution was diluted in double strength cation-adjusted Mueller-Hinton Broth (CAMHB) and dispensed in mircrodilution trays. All β-hemolytic streptococci were tested in double strength CAMHB supplemented with 5% lysed horse blood. Isolates were prepared by suspending several colonies (four to six) from an overnight culture on Trypticase Soy Agar (TSA) with 5% sheep blood into sterile saline and the density adjusted to a 0.5 McFarland standard (˜10^8 CFU/ml). Standardized bacterial suspensions were further diluted in double strength Diluent solution so that approximately 5×10^5 CFU/ml was mixed with serial drug dilutions. The addition of Diluent solution to the Concentrate solution activates the enzyme system, which in turn exerts its rapid mode of action. The microdilution trays were incubated in ambient air at 35° C. for 18 to 24 h.
MIC ranges were established for the Enhanced MPO Solution by testing over 20 replicates of one lot of the Enhanced MPO Solution against S. aureus ATCC 29213 and E. coli ATCC 25922. Quality control parameters were then determined for the Enhanced MPO Solution by testing three lots of the Concentrate solution used for preparation of the final Enhanced MPO Solution formulation. Testing was performed in duplicate against S. aureus ATCC 29213 and E. coli ATCC 25922. The effects of modifying the standard broth microdilution test were also assessed with antibiotics with known quality control limits to validate the CLSI broth microdilution method.

Klebsiella pneumoniae = test: MIC, modified CLSI broth microdilution; format: cell-based; settings: 31 clinical isolates
Description: as §1, §2

Proteus mirabilis = test: MIC, modified CLSI broth microdilution; format: cell-based; settings: 24 clinical isolates
Description: as §1, §2

Acinetobacter species = test: MIC, modified CLSI broth microdilution; format: cell-based; settings: Acintobacter spp., 29 clinical isolates
Description: as §1, §2

P. aeruginosa = test: MIC, modified CLSI broth microdilution; format: cell-based; settings: Pseudomonas aeruginosa, 53 clinical isolates
Description: (§3) Modifications were made to the standard broth microdilution method to accommodate the rapid in vitro activity of the Enhanced MPO Solution as described below. Each antimicrobial agent and Concentrate solution was diluted in double strength cation-adjusted Mueller-Hinton Broth (CAMHB) and dispensed in mircrodilution trays. All β-hemolytic streptococci were tested in double strength CAMHB supplemented with 5% lysed horse blood. Isolates were prepared by suspending several colonies (four to six) from an overnight culture on Trypticase Soy Agar (TSA) with 5% sheep blood into sterile saline and the density adjusted to a 0.5 McFarland standard (˜10^8 CFU/ml). Standardized bacterial suspensions were further diluted in double strength Diluent solution so that approximately 5×10^5 CFU/ml was mixed with serial drug dilutions. […] The microdilution trays were incubated in ambient air at 35° C. for 18 to 24 h.

Aeromonas hydrophilia = test: MIC, modified CLSI broth microdilution; format: cell-based; settings: 5 clinical isolates, range for all strains tested
Description: as §3

Pasteurella multocida = test: MIC, modified CLSI broth microdilution; format: cell-based; settings: 5 clinical isolates, range for all strains tested
Description: as §3

Staphylococcus aureus [1] = test: Microbicidal activity of the myeloperoxidase system (p-MPO, glucose oxidase, glucose) with amino acids in the presence of blood, CFU plate counts; synergy determination from these CFU; format: cell-based; settings: for Average Viability CFU/ml 50 min / Log Reduction 50 min: single amino acid 2.5 mM, MPO 4.7 U/ml, GO 4.2 U/ml, in the presence of blood
In short: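 Microbicidal activity of the MPO–glucose oxidase–glucose system against S. aureus with amino acids was assessed in 3% whole blood. Reactions of 1 mL were run at room temperature or 37° C and stopped with catalase. Surviving CFU were counted on trypticase soy agar. For each pair, Actual CFU was divided by Predicted CFU and multiplied by 100. This value was compared with variability-based thresholds to classify synergism, antagonism or additivity.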

Staphylococcus aureus [2] = test: Control: microbicidal activity of the amino acid or analogue alone (no glucose, MPO, glucose oxidase) in the presence of blood; format: cell-based; settings: amino acid alone 5 mM, MPO 0, GO 0, no glucose, blood, without replication
Description: As a control to determine the microbicidal activity of the amino acids alone, the foregoing procedure was followed without replication, except in the absence of glucose, MPO, and glucose oxidase.

Bacillus subtilis spores = test: Myeloperoxidase system with beta alanine and L-alanine against spores in the presence of blood; format: cell-based; settings: 2 hours, MPO 25 μg/mL (9.4 U/mL), GO 8.3 U/mL
Description: The effect of a two-way combination of beta alanine and L-alanine, as potential enhancing agents, for MPO microbicidal action against Bacillus subtilis spores in the presence of blood, was determined following the procedure of Example 2. However, in this case each test contained a single low concentration of MPO (25 μg/mL or 9.4 U/mL) and glucose oxidase (8.3 U/mL). […] The effect of both L-alanine and beta alanine alone on the myeloperoxidase antimicrobial activity against Bacillus subtilis spores was tested for comparison.
The nature of the relationship between beta alanine and L-alanine was examined following the synergy determination method described above.

[3] = Escherichia coli, 52 clinical isolates
[4] = Table 2, amino acid 5 mM (none: 0 mM), MPO 38 U/ml, GO 33.3 U/ml, blood

In the case of gentamicin, the “MIC 50%” value (Citrobacter freundii) is reported as 2 µg/mL, the “MIC 90%” value (Citrobacter freundii) is reported as 4 µg/mL and the “MIC 50%” value (Enterobacter cloacae) is reported as 2 µg/mL. The “MIC 90%” value (Enterobacter cloacae) was 8 µg/mL, the “MIC by the modified method versus published quality control ranges” value (E. coli; E. coli ATCC 25922, inoculum prepared in Diluent solution) was “within previously published quality control ranges” and the “MIC 50%” value (E. coli; [3]) was 4 µg/mL. The “MIC 90%” value (E. coli; [3]) was greater than 32 µg/mL, the “MIC 50%” value (Klebsiella pneumoniae) was 4 µg/mL and the “MIC 90%” value (Klebsiella pneumoniae) was greater than 32 µg/mL. The “MIC 50%” value (Proteus mirabilis) was 8 µg/mL, the “MIC 90%” value (Proteus mirabilis) was 8 µg/mL and the “MIC 50%” value (Acinetobacter species) was 8 µg/mL. The “MIC 90%” value (Acinetobacter species) was greater than 32 µg/mL, the “MIC 50%” value (P. aeruginosa) was 4 µg/mL and the “MIC 90%” value (P. aeruginosa) was 16 µg/mL. For the same molecule, the “MIC Range” value (Aeromonas hydrophilia) was 1 to 4 µg/mL and the “MIC Range” value (Pasteurella multocida) was 2 to 16 µg/mL.
`C[C@H](N)C(=O)O` [L-Alanine] was tested, and the “Log 10 (CFU + 1) Survivors” value (Staphylococcus aureus [1]; MPO 25 μg/mL, AA 5 mM, 30 min) was 6.9, the “Log 10 (CFU + 1) Survivors” value (Staphylococcus aureus [1]; MPO 25 μg/mL, AA 5 mM, 60 min) was 4.1 and the “Log 10 (CFU + 1) Survivors” value (Staphylococcus aureus [1]; MPO 25 μg/mL, AA […], 30 min) was 7.0. The “Log 10 (CFU + 1) Survivors” value (Staphylococcus aureus [1]; MPO 25 μg/mL, AA […], 60 min) was 4.7, the “Log 10 (CFU + 1) Survivors” value (Staphylococcus aureus [1]; MPO 100 μg/mL, AA 5 mM, 30 min) was 5.1 and the “Log 10 (CFU + 1) Survivors” value (Staphylococcus aureus [1]; MPO 100 μg/mL, AA 5 mM, 60 min) was 0.0. For the same molecule, the “Log 10 (CFU + 1) Survivors” value (Staphylococcus aureus [1]; MPO 100 μg/mL, AA 20 mM, 30 min) was 6.1, the “Log 10 (CFU + 1) Survivors” value (Staphylococcus aureus [1]; MPO 100 μg/mL, AA 20 mM, 60 min) was 0.0 and the “Average Viability CFU/ml 60 min” value (Staphylococcus aureus [1]; [4]) was 7 CFU/ml. For the same molecule, the “Log 10 (CFU + 1) Survivors 60 min” value (Staphylococcus aureus [1]; [4]) was 0.9, the “Log Reduction 60 min” value (Staphylococcus aureus [1]; [4]) was 6.5 and the “Average Viability CFU/ml 50 min” value (Staphylococcus aureus [1]; Table 10) was 9750000 CFU/ml. For the same molecule, the “Log Reduction 50 min” value (Staphylococcus aureus [1]; Table 10) was 0.4, the “Average Viability CFU/ml 50 min” value (Staphylococcus aureus [1]; Table 13) was 2230000 CFU/ml and the “Log Reduction 50 min” value (Staphylococcus aureus [1]; Table 13) was 1.0. For the same molecule, the “Average Viability CFU/ml 50 min” value (Staphylococcus aureus [1]; Table 14) was 2215000 CFU/ml, the “Log Reduction 50 min” value (Staphylococcus aureus [1]; Table 14) was 1.1 and the log reduction at 5000 µM (Staphylococcus aureus [2]; Staphylococcus aureus, 1 h, read-out: Log Reduction 60 min) was 0. The “Average Viability CFU/ml 60 min” value (Staphylococcus aureus [2]) was 24100000 CFU/ml, the CFU survivors (Bacillus subtilis spores) was 520000 CFU and the log reduction (Bacillus subtilis spores) was 1.5 log.
